Experimental data taken from patent publication US8309582B2, “Small molecule Bcl-Xl/Bcl-2 binding inhibitors” (The Ohio State University Research Foundation, priority 2004, dated 2012).

What was measured:
[1] = WB (IC50 for WB, Tables 1-9); assay type: cell-based; conditions: marker, cell line and unit inferred
Procedure: Immunoblotting. Cells in T-75 flasks were collected by scraping, and suspended in 60 μl of phosphate-buffered saline (PBS). Two μl of the suspension was taken for protein analysis using the Bradford assay kit (Bio-Rad, Hercules, Calif.). To the remaining solution was added the same volume of 2×SDS-PAGE sample loading buffer (100 mM Tris-HCl, pH 6.8, 4% SDS, 5% β-mercaptoethanol 20% glycerol, and 0.1% bromophenol blue). The mixture was sonicated briefly, and boiled for 5 min. Equal amounts of proteins were loaded onto 10% SDS-PAGE gels.
After electrophoresis, protein bands were transferred to nitrocellulose membranes in a semidry transfer cell. The transblotted membrane was washed twice with Tris-buffered saline (TBS) containing 0.1% Tween 20 (TBST). After blocking with TBST containing 5% nonfat milk for 40 min, the membrane was incubated with the appropriate primary antibody in TBST-1% nonfat milk at 4° C. overnight. All primary antibodies were diluted 1:1000 in 1% nonfat milk-containing TBST. After treatment with the primary antibody, the membrane was washed three times with TBST for a total of 15 min, followed by incubation with goat anti-rabbit or anti-mouse IgG-horseradish peroxidase conjugates (diluted 1:5000) for 1 h at room temperature and three washes with TBST for a total of 1 h. The immunoblots were visualized by enhanced chemiluminescence.

PC-3 cells = assay: Cell viability analysis (MTT) in PC-3 cells; assay type: cell-based; conditions: Homo sapiens, PC-3, PC-3 cells, read-out: IC50 (μM) PC3
Procedure: Cell viability analysis. The effect of individual test agents on cell viability was assessed by using the MTT {[3-(4,5-dimethylthiazol-2-yl)-2,5-diphenyl-2H-tetrazolium bromide]} assay in six to twelve replicates. […] Controls received DMSO vehicle at a concentration equal to that in drug-treated cells. […] Supernatants were removed from the wells, and the reduced MTT dye was solubilized in 200 μl/well DMSO. Absorbance at 570 nm was determined on a plate reader.
(§1) Determination of IC50 values. Data from cell viability and FP assays were analyzed by using the CalcuSyn software (Biosoft, Ferguson, Mo.) to determine IC50 values, in which the calculation was based on the medium effect equation (18), i.e., Log(fa/fu)=m log(D)−m log(Dm) (equation 1), where fa and fu denote fraction affected and unaffected, respectively; m represents the Hill-type coefficient signifying the sigmoidicity of the dose-effect curve; D and Dm are the dose used and IC50, respectively.

[2] = MTT assay (IC50 for MTT, Tables 1-9); assay type: cell-based; conditions: cell line and unit inferred
Procedure: Cell viability analysis. The effect of individual test agents on cell viability was assessed by using the MTT {[3-(4,5-dimethylthiazol-2-yl)-2,5-diphenyl-2H-tetrazolium bromide]} assay in six to twelve replicates. Cells were seeded and incubated in 96-well, flat-bottomed plates in serum-free media for 24 h, and were exposed to various concentrations of test agents dissolved in DMSO (final concentration, 0.1%) in serum-free RPMI 1640 medium for different time intervals. Controls received DMSO vehicle at a concentration equal to that in drug-treated cells. The medium was removed, replaced by 200 μl of 0.5 mg/ml of MTT in 10% FBS-containing RPMI-1640 medium, and cells were incubated in the CO2 incubator at 37° C. for 2 h. Supernatants were removed from the wells, and the reduced MTT dye was solubilized in 200 μl/well DMSO. Absorbance at 570 nm was determined on a plate reader.
as §1

Bcl-xL = target: T1, Bcl-xL (Homo sapiens, UniProt Q07817); assay: Competitive fluorescence polarization assay, displacement of Flu-BakBH3 peptide from Bcl-xL; assay type: binding; conditions: unit inferred; read-out: IC50 for inhibiting BH3-mediated protein interactions (Bcl-xL)
T1 construct: fused on or other part: His tag
T1 sequence (Q07817 1-209 limits assumed): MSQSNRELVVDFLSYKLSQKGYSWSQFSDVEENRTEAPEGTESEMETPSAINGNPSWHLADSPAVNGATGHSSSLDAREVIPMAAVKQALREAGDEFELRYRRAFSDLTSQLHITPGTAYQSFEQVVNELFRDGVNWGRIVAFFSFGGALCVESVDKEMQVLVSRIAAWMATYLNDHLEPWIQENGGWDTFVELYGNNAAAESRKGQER
Procedure: (§2) Competitive Fluorescence Polarization Assay. The binding affinity of the test agent to Bcl-2 and Bcl-xL was analyzed by a competitive fluorescence polarization assay, in which the ability of the agent to displace the binding of a Bak BH3-domain peptide to either Bcl-2 or Bcl-xL was determined. Flu-BakBH3, a Bak-BH3 peptide labeled at the N-terminus with fluorescein, was purchased from Genemed Synthesis (San Francisco, Calif.). C-Terminal-truncated, His-tagged Bcl-xL was purchased from EMD Biosciences (San Diego, Calif.), and soluble GST-fused Bcl-2 was obtained from Santa Cruz (Santa Cruz, Calif.). The KD determination was carried out in a dual-pathlength quartz cell with readings taken at […] at room temperature using a luminescence spectrometer according to an established procedure (17). Determination of IC50 values. Data from cell viability and FP assays were analyzed by using the CalcuSyn software (Biosoft, Ferguson, Mo.) to determine IC50 values, in which the calculation was based on the medium effect equation (18), i.e., Log(fa/fu)=m log(D)−m log(Dm) (equation 1), where fa and fu denote fraction affected and unaffected, respectively; m represents the Hill-type coefficient signifying the sigmoidicity of the dose-effect curve; D and Dm are the dose used and IC50, respectively.

Bcl-2 = Bcl-2 (Homo sapiens, UniProt P10415); assay: Competitive fluorescence polarization assay, displacement of Flu-BakBH3 peptide from Bcl-2; assay type: binding; conditions: unit inferred; read-out: IC50 for inhibiting BH3-mediated protein interactions (Bcl-2)
Bcl-2, sequence (P10415 whole entry): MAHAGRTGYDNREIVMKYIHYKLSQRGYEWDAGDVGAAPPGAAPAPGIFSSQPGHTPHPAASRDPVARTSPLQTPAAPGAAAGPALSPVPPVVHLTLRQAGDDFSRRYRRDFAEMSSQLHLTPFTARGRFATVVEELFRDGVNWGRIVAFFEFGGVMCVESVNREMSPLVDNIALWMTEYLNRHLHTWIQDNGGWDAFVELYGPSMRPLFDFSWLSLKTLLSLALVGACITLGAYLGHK
Procedure: as §2

Structure (SMILES)	IC50 [1] [µM]	IC50 (PC-3 cells) [µM]	IC50 [2] [µM]	IC50 (Bcl-xL) [µM]	IC50 (Bcl-2) [µM]
CC(C)=CCOc1c(C)c(C)c2c(c1C)CCC(C)(COc1ccc(/C=C3\SC(=O)NC3=O)cc1[N+](=O)[O-])O2 (centres unmarked) [TG-35]	2.7	> 50	–	–	–
CC(C)=CCOc1c(C)c(C)c2c(c1C)CCC(C)(COc1ccc(C=C(C#N)C#N)cc1Br)O2 (centres unmarked) [TG-36]	> 7.5	> 50	> 50	–	–
CC(C)=CCOc1c(C)c(C)c2c(c1C)CCC(C)(COc1ccc(/C=C/C(=O)O)cc1Br)O2 (centres unmarked) [TG-37]	> 7.5	6 ± 0.7	–	–	–
CCOC(=O)C(C)(C)C(O)c1ccc(OCC2(C)CCc3c(C)c(OCC=C(C)C)c(C)c(C)c3O2)c(Br)c1 (centres unmarked) [TG-38]	4.5	12.5 ± 0.6	> 50	–	–
CC(C)=CCOc1c(C)c(C)c2c(c1C)CCC(C)(COc1ccc(C(O)C(C)(C)C(=O)O)cc1Br)O2 (centres unmarked) [TG-39]	> 7.5	7 ± 0.4	–	–	–
CCOC(=O)C(=Cc1ccc(OCC2(C)CCc3c(C)c(OCC=C(C)C)c(C)c(C)c3O2)c(Br)c1)C(=O)OCC (centres unmarked) [TG-41]	> 7.5	> 50	> 50	–	–
CC(C)=CCOc1c(C)c(C)c2c(c1C)CCC(C)(COc1ccc(C=C(C(=O)O)C(=O)O)cc1Br)O2 (centres unmarked) [TG-42]	> 7.5	16 ± 0.3	> 50	–	–
CC(C)=CCOc1c(C)c(C)c2c(c1C)CCC(C)(COc1ccc(/C=C3\SC(=O)NC3=O)c3ccccc13)O2 (centres unmarked) [TG-43]	7.2	3 ± 0.2	–	–	–
COc1cc(/C=C2\SC(=O)NC2=O)cc(Br)c1OCC1(C)CCc2c(C)c(OCC=C(C)C)c(C)c(C)c2O1 (centres unmarked) [TG-44]	> 7.5	5.1 ± 0.4	–	–	–
CCOc1cc(/C=C2\SC(=O)NC2=O)ccc1OCC1(C)CCc2c(C)c(OCC=C(C)C)c(C)c(C)c2O1 (centres unmarked) [TG-45]	6.7	4.6 ± 0.3	–	–	–
CC(C)=CCOc1c(C)c(C)c2c(c1C)CCC(C)(COc1ccc(/C=C3\SC(=S)NC3=O)c3ccccc13)O2 (centres unmarked) [TG-46]	6.7	5.3 ± 0.3	–	–	–
C=CCOc1c(C)c(C)c2c(c1C)CCC(C)(COc1cccc(/C=C3\SC(=O)NC3=O)c1)O2 (centres unmarked) [TG-51]	4.4	6.8 ± 0.2	40	–	–
C=CCOc1c(C)c(C)c2c(c1C)CCC(C)(COc1c(C)cc(/C=C3\SC(=O)NC3=O)cc1C)O2 (centres unmarked) [TG-52]	7.5	4.5 ± 0.2	–	–	–
C=CCOc1c(C)c(C)c2c(c1C)CCC(C)(COc1ccc(/C=C3\SC(=O)NC3=O)c3ccccc13)O2 (centres unmarked) [TG-53]	3.4	3.3 ± 0.3	–	–	–
C=CCOc1c(C)c(C)c2c(c1C)CCC(C)(COc1c(Br)cc(/C=C3\SC(=O)NC3=O)cc1OC)O2 (centres unmarked) [TG-54]	3.8	–	–	–	–
C=CCOc1c(C)c(C)c2c(c1C)CCC(C)(COc1ccc(/C=C3\SC(=O)NC3=O)cc1OCC)O2 (centres unmarked) [TG-55]	> 7.5	–	–	–	–
CC(C)=CCOc1c(C)c(C)c2c(c1C)CCC(C)(COc1ccc(/C=C3\SC(=S)NC3=O)cc1Br)O2 (centres unmarked) [TG-89]	–	4.4 ± 0.4	–	–	–
CN(CCOc1ccc(C=C2SC(O)=NC2=O)cc1)c1ccccn1 [Δ2-RG, 5-{4-[2-(methyl-pyridin-2-yl-amino)-ethoxy]-benzylidene}-thiazolidine-2,4-dione]	–	–	–	> 50	> 50
